Laboratory results from US20260115190A1, “DISPERSIONS OF ETRUMADENANT” (Arcus Biosciences, Inc., priority 2022, published 2026).

Legend:
[1] = Non-sink dissolution (0.1N HCl to FaSSIF gastric transfer); type: physicochemical
Procedure: In vitro drug dissolution performance for each dispersion was evaluated under non-sink conditions in a two-stage process that simulates pH and bile salt concentrations for both gastric and intestinal exposure. In vitro dissolution testing under non-sink conditions allows for a direct evaluation of each dispersion's ability to generate and maintain supersaturation above crystalline etrumadenant's solubility; was used as a predictive surrogate for ensuring product quality and in vivo performance; and is an effective test to discriminate between formulations at a given stability condition.
To begin dissolution (t=0), a sample of SDI powder was briefly suspended in 4 mL of FaSSIF (2 mg/mL SIF in 100 mM PBS) and then transferred into 50 mL SGF (0.1 N HCl (aq)) pre-heated to 37° C. in a USP Type 2 mini-vessel (100 mL total vessel volume) with stirring (paddles) at 100 rpm. At 30 minutes, a gastric transfer step was performed wherein the volume in each dissolution vessel was approximately doubled using 2×FaSSIF (4.48 mg/mL SIF powder (BioRelevant)), resulting in a final pH of 6.8 in a total volume of 100 mL. Samples taken before and after this transfer at indicated times were evaluated for drug concentration by HPLC. The drug concentrations measured in this test are a composite of SDI free drug, drug in micelles, and drug suspended in solution. A summary of the dissolution and HPLC parameters are shown in Table 6 and Table 7, respectively.

[2] = Thermal analysis by MDSC (Tg); type: physicochemical; conditions: amorphous etrumadenant made by melt quenching; one experiment
Procedure: Thermal Properties. Thermal properties were measured using a TA Instruments Discovery DSC2500 DSC equipped with a TA instruments Refrigerated Cooling System 90 operating in modulated mode. Briefly, bulk drug substance was analyzed by standard DSC with a heating rate of 10° C. per minute ramping up to 220° C. Amorphous etrumadenant was created from the starting drug substance by rapidly melt quenching using liquid N2 and then analyzed by modulated DSC (MDSC). Events monitored include the glass transition temperature (Tg), cold crystallization (Tc), defined as a crystallization event at a temperature lower than the melt temperature, and melting temperature (Tm). In one experiment, the thermal properties were as follows: Tg=69° C.; Tc=no crystallization up to 220° C.; Tm=192° C. Minor lot-to-lot variation may occur.

[3] = target: P-gp (Homo sapiens, UniProt P08183); assay: In vitro transporter substrate data (P-gp); type: in vitro ADME
Sequence of P-gp (P08183 whole entry): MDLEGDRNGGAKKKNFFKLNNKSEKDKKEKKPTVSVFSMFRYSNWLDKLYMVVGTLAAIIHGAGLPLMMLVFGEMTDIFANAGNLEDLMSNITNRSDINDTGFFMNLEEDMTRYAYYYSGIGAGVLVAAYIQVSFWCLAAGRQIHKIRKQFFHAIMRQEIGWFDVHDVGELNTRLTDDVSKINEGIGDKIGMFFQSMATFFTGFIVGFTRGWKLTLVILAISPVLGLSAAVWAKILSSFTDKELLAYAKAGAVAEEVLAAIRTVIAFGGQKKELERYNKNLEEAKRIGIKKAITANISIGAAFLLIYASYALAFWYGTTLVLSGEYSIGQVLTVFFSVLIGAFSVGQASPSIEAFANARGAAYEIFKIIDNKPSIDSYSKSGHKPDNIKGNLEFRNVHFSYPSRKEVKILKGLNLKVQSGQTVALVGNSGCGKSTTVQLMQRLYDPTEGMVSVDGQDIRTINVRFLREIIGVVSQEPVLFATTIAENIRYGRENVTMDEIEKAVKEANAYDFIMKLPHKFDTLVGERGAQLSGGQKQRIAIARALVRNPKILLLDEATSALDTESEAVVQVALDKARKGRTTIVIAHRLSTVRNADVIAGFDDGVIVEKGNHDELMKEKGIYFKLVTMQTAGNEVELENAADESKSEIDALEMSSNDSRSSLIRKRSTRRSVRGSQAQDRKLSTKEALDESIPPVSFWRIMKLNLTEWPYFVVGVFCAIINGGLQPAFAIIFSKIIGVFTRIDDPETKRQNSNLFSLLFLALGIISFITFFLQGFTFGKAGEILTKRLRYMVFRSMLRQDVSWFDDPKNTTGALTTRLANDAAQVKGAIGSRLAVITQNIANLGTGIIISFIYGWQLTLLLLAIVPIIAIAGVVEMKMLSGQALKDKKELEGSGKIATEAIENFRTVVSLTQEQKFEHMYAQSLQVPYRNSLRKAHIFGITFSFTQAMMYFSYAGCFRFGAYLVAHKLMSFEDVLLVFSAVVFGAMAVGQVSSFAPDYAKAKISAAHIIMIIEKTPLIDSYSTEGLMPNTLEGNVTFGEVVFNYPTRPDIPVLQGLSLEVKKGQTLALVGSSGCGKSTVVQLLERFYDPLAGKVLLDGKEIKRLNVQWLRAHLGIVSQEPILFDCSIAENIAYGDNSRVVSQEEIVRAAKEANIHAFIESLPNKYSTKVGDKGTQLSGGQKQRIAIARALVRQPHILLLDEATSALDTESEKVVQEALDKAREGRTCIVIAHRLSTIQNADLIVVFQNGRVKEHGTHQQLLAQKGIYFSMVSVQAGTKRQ

[4] = target: A2AR (Homo sapiens, UniProt P29274); conditions: antagonist; has been reported; cited from earlier work
Sequence of A2AR (P29274 whole entry): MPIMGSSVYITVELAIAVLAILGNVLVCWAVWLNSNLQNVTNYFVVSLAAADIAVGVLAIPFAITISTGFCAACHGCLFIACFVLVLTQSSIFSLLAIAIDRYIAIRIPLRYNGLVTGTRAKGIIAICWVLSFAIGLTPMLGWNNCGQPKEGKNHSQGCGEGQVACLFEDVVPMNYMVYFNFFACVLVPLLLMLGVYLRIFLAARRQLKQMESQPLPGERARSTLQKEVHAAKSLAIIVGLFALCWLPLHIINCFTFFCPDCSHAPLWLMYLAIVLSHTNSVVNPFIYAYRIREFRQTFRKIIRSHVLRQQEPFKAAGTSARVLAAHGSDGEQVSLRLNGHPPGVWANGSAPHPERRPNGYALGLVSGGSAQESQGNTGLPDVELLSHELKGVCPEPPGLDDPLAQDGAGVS

[5] = target: T1, A2BR (Homo sapiens, UniProt P29275); conditions: antagonist; has been reported; cited from earlier work
T1 sequence (P29275 1-332): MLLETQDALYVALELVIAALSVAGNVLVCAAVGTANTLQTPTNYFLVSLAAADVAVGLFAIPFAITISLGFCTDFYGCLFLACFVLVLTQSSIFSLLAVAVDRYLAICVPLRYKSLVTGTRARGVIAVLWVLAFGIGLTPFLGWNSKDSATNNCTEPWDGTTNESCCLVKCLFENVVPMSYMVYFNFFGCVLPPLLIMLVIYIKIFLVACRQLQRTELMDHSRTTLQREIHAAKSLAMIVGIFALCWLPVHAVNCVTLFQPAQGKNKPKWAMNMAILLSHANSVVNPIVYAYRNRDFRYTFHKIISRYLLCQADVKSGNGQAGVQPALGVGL

[6] = target: T2, breast cancer resistance protein (BCRP) (Homo sapiens, UniProt Q9UNQ0); assay: In vitro transporter substrate data (BCRP); type: in vitro ADME
T2 sequence (Q9UNQ0 1-655): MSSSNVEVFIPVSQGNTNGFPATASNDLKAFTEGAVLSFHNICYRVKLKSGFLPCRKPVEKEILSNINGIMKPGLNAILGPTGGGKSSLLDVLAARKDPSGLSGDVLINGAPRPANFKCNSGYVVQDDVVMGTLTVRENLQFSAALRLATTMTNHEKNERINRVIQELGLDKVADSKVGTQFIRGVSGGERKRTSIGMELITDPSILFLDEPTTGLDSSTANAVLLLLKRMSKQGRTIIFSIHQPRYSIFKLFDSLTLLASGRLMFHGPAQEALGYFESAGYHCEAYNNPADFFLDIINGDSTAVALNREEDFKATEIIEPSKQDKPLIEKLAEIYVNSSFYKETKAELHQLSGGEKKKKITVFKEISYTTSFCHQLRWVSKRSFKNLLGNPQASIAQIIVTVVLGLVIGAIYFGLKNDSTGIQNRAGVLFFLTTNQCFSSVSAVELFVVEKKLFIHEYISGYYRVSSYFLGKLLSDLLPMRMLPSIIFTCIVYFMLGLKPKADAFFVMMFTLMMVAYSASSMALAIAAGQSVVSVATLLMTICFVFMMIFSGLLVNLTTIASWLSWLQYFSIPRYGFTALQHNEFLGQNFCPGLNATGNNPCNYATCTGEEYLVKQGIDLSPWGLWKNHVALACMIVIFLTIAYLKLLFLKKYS

[7] = IV reference AUClast in beagle dogs; conditions: dog, in vivo, IV at 5 mg/kg

AUC35-210 FaSSIF ([1]; Example 4, after transfer to FaSSIF from 35 to 210 minutes): 8000 min*μgA/mL
C210 ([1]; Example 4, drug concentration at 210 minutes (180 minutes after transfer to FaSSIF)): 37.9 μgA/mL
Cmax FaSSIF ([1]; Example 4, maximum drug concentration after transfer to FaSSIF): 155.0 μgA/mL
AUC35-210 FaSSIF ([1]; Example 5, t = 0): 3800 min*μgA/mL
C210 ([1]; Example 5, t = 0): 15.5 μgA/mL
Total Drug CmaxFaSSIF ([1]; Example 5, t = 0): 129.9 μgA/mL
C210 ([1]; Example 5, t = 0, listed as AB928 starting drug substance): 15.6 μgA/mL
glass transition temperature (Tg) [2]: 69 °C
substrate of P-gp [3]: substrate
substrate of breast cancer resistance protein (BCRP) [6]: substrate
AUC(0-t) [7]: 25100 ng·h/mL
SMILES: Cc1c(C#N)cccc1-c1cc(-c2cn(Cc3cccc(C(C)(C)O)n3)nn2)nc(N)n1 [Etrumadenant, 3-[2-amino-6-(1-{[6-(2-hydroxypropan-2-yl)pyridine-2-yl]methyl}-1H-1,2,3-triazol-4-yl)pyrimidin-4-yl]-2-methylbenzonitrile]
potency on A2AR [4]: less than 10 nM
potency on A2BR [5]: less than 10 nM
